Results taken from ChEMBL document CHEMBL4507283, “Data for DCP probe BI-1935” (2021).

How the values were obtained:
[1] = target: Serine/threonine-protein kinase 32A (Homo sapiens) (UniProt Q8WU08); conditions: Compound concentration 1000.0 nM
[2] = target: Tyrosine-protein kinase BTK (Homo sapiens) (UniProt Q06187); conditions: Compound concentration 1000.0 nM
[3] = target: Ribosomal protein S6 kinase alpha-4 (Homo sapiens) (UniProt O75676); conditions: Compound concentration 1000.0 nM
[4] = target: Mitogen-activated protein kinase kinase kinase 2 (Homo sapiens) (UniProt Q9Y2U5); conditions: Compound concentration 1000.0 nM
[5] = target: Voltage-dependent L-type calcium channel subunit alpha-1C (Rattus norvegicus, UniProt P22002); experiment: CA+/TLATATG Eurofins-Panlabs selectivity data (BI); design: species or system Cavia porcellus; mode of action antagonist; conditions: guinea pig, atrial tissue, read-out: % Ctrl
[6] = target: Serine/threonine-protein kinase VRK2 (Homo sapiens) (UniProt Q86Y07); conditions: Compound concentration 1000.0 nM
[7] = target: Dual specificity protein kinase CLK1 (Homo sapiens) (UniProt P49759); conditions: Compound concentration 1000.0 nM
[8] = target: T1, 5-hydroxytryptamine receptor 3A (Homo sapiens) (UniProt P46098); conditions: Compound concentration 10.0 uM
T1 sequence (whole entry): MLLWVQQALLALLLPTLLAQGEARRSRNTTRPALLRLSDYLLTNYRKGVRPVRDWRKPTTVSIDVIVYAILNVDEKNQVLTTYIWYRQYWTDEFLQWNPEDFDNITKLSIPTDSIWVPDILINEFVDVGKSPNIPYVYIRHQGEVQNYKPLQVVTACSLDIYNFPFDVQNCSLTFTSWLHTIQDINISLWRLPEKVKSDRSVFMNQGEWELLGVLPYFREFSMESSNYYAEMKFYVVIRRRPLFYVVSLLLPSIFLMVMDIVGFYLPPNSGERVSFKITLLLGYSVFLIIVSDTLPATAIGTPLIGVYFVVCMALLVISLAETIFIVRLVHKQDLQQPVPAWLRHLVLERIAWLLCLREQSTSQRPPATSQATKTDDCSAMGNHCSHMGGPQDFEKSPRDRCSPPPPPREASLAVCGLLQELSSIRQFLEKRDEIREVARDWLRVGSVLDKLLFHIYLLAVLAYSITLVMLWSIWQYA

[9] = target: Voltage-dependent L-type calcium channel subunit alpha-1C (phenylalkylamine site) (Rattus norvegicus, UniProt P22002); experiment: CA+/PAASITE Eurofins-Panlabs selectivity data (BI); conditions: compound concentration 10 uM, read-out: % Ctrl
[10] = target: Mitogen-activated protein kinase kinase kinase kinase 1 (Homo sapiens) (UniProt Q92918); conditions: Compound concentration 1000.0 nM
[11] = target: Thromboxane A2 receptor (Homo sapiens) (UniProt P21731); experiment: PROST_A2TP Eurofins-Panlabs selectivity data (BI); conditions: Compound concentration 10.0 uM
[12] = tested on: Epidermal growth factor receptor (Homo sapiens), P00533 [T790M]; conditions: Compound concentration 1000.0 nM
[13] = target: Phosphorylase b kinase gamma catalytic chain, skeletal muscle/heart isoform (Homo sapiens) (UniProt Q16816); conditions: Compound concentration 1000.0 nM
[14] = target: Serine/threonine-protein kinase Nek1 (Homo sapiens) (UniProt Q96PY6); conditions: Compound concentration 1000.0 nM
[15] = target: Cyclin-dependent kinase-like 1 (Homo sapiens) (UniProt Q00532); conditions: Compound concentration 1000.0 nM
[16] = target: Mitogen-activated protein kinase 7 (Homo sapiens) (UniProt Q13164); conditions: Compound concentration 1000.0 nM
[17] = target: MAP/microtubule affinity-regulating kinase 3 (Homo sapiens) (UniProt P27448); conditions: Compound concentration 1000.0 nM
[18] = target: Calcium/calmodulin-dependent protein kinase type II subunit beta (Homo sapiens) (UniProt Q13554); conditions: Compound concentration 1000.0 nM
[19] = target: Adrenergic receptor alpha-1 (Rattus norvegicus) (UniProt P15823+P23944+P43140); experiment: ALPHA1/R Eurofins-Panlabs selectivity data (BI); assay type: protein assay; conditions: Compound concentration 10.0 uM
[20] = target: Mast/stem cell growth factor receptor Kit (Homo sapiens) (UniProt P10721); conditions: Compound concentration 1000.0 nM
[21] = target: cAMP-dependent protein kinase catalytic subunit PRKX (Homo sapiens) (UniProt P51817); conditions: Compound concentration 1000.0 nM
[22] = tested on: Epidermal growth factor receptor (Homo sapiens), P00533 [UNDEFINED MUTATION]; conditions: Compound concentration 1000.0 nM
[23] = target: MAP kinase-interacting serine/threonine-protein kinase 2 (Homo sapiens) (UniProt Q9HBH9); conditions: Compound concentration 1000.0 nM
[24] = target: Serine/threonine-protein kinase MARK2 (Homo sapiens) (UniProt Q7KZI7); conditions: Compound concentration 1000.0 nM
[25] = target: G protein-coupled receptor kinase 4 (Homo sapiens) (UniProt P32298); conditions: Compound concentration 1000.0 nM
[26] = target: Adrenergic receptor alpha-2 (Rattus norvegicus) (UniProt P22086+P19328+P22909); experiment: ALPHA2/R Eurofins-Panlabs selectivity data (BI); assay type: protein assay; conditions: Compound concentration 10.0 uM
[27] = target: BMP-2-inducible protein kinase (Homo sapiens) (UniProt Q9NSY1); conditions: Compound concentration 1000.0 nM
[28] = target: BDNF/NT-3 growth factors receptor (Homo sapiens) (UniProt Q16620); conditions: Compound concentration 1000.0 nM
[29] = target: Activin receptor type-1-like (Homo sapiens) (UniProt P37023); conditions: Compound concentration 1000.0 nM
[30] = target: Tyrosine-protein kinase receptor TYRO3 (Homo sapiens) (UniProt Q06418); conditions: Compound concentration 1000.0 nM
[31] = target: NUAK family SNF1-like kinase 1 (Homo sapiens) (UniProt O60285); conditions: Compound concentration 1000.0 nM
[32] = target: Prostaglandin G/H synthase 2 (Homo sapiens) (UniProt P35354); experiment: COX-2 Eurofins-Panlabs selectivity data (BI); conditions: Compound concentration 10.0 uM
[33] = target: Receptor tyrosine-protein kinase erbB-2 (Homo sapiens) (UniProt P04626); conditions: Compound concentration 1000.0 nM
[34] = target: Sodium/potassium-transporting ATPase subunit alpha-1 (Sus scrofa) (UniProt P05024); experiment: ATP NA+/K+PI Eurofins-Panlabs selectivity data (BI); conditions: Compound concentration 10.0 uM
[35] = target: Serine/threonine-protein kinase D3 (Homo sapiens) (UniProt O94806); conditions: Compound concentration 1000.0 nM
[36] = target: Cyclin-dependent kinase 11A (Homo sapiens) (UniProt Q9UQ88); conditions: Compound concentration 1000.0 nM

Sequence of Voltage-dependent L-type calcium channel subunit alpha-1C (P22002 whole entry): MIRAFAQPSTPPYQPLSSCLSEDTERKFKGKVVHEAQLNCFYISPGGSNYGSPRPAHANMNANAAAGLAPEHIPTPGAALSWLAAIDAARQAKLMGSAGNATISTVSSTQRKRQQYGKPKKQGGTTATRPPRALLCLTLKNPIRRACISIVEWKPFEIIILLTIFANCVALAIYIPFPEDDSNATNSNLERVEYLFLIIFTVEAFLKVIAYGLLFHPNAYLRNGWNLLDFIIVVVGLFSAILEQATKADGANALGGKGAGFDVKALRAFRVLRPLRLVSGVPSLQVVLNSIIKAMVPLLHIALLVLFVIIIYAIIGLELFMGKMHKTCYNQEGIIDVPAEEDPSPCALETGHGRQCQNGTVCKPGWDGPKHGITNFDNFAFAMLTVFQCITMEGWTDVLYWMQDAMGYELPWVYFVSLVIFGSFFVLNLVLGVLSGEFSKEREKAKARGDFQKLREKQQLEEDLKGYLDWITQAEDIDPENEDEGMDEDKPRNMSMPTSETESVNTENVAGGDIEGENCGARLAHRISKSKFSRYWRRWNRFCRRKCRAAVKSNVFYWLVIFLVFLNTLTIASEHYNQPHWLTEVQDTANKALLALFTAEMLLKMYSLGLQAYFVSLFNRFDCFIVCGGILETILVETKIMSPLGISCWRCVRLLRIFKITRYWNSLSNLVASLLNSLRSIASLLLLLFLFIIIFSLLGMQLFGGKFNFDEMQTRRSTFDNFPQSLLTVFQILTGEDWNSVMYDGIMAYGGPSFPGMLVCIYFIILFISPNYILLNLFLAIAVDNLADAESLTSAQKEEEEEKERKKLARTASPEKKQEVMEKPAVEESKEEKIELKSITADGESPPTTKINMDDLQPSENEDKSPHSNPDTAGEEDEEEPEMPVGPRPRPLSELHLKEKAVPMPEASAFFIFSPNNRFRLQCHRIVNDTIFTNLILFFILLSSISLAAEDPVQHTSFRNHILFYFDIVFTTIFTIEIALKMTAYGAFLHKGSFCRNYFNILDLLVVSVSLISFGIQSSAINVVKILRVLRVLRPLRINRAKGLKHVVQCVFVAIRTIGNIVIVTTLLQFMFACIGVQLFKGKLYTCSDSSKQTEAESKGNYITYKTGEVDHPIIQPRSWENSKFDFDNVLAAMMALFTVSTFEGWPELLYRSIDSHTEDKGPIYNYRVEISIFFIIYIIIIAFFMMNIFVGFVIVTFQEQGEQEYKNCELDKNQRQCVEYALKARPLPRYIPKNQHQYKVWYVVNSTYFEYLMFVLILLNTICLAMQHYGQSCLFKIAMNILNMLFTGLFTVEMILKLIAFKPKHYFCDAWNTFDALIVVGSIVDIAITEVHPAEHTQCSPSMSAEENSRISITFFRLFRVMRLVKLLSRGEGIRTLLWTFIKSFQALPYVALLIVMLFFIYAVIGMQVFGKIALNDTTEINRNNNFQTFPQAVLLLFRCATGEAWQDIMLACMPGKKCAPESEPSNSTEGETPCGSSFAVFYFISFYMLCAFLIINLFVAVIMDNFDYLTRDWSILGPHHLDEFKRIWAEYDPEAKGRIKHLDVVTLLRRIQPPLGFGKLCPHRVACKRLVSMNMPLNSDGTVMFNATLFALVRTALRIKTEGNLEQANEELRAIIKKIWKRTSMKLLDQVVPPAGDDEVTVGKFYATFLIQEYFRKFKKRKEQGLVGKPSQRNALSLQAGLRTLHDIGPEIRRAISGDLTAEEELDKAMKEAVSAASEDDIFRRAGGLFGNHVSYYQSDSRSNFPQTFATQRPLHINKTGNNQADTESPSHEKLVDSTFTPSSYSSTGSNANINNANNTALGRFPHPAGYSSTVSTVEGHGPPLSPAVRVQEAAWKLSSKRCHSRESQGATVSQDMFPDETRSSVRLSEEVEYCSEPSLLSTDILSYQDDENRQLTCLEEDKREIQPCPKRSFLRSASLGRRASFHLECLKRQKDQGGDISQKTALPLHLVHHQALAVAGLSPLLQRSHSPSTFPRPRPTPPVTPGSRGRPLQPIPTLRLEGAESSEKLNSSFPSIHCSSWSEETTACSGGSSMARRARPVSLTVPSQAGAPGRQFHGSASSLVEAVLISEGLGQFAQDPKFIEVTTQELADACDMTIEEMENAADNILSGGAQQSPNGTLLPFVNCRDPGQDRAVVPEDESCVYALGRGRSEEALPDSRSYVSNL
Sequence of Serine/threonine-protein kinase MARK2 (Homo sapiens) (Q7KZI7 whole entry): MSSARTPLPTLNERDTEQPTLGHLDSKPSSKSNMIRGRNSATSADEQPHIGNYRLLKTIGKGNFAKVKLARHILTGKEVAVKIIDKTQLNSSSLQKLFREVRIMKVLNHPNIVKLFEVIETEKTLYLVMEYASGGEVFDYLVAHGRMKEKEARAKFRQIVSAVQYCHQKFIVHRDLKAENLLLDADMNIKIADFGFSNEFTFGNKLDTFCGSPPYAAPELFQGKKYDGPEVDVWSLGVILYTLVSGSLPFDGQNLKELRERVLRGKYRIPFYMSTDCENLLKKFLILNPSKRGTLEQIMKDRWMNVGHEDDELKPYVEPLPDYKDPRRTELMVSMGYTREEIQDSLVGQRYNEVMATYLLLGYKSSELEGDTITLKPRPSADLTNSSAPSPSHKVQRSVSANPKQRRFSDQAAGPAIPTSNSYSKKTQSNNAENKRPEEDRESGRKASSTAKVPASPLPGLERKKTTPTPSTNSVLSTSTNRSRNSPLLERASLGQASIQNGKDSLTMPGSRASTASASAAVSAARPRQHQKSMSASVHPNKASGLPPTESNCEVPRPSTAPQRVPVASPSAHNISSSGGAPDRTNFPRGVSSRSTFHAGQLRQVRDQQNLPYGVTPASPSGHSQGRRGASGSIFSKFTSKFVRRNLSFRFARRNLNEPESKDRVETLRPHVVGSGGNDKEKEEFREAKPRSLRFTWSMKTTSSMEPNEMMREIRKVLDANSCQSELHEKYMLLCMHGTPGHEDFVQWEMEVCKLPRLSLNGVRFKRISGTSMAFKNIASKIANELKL
Sequence of Calcium/calmodulin-dependent protein kinase type II subunit beta (Homo sapiens) (Q13554 whole entry): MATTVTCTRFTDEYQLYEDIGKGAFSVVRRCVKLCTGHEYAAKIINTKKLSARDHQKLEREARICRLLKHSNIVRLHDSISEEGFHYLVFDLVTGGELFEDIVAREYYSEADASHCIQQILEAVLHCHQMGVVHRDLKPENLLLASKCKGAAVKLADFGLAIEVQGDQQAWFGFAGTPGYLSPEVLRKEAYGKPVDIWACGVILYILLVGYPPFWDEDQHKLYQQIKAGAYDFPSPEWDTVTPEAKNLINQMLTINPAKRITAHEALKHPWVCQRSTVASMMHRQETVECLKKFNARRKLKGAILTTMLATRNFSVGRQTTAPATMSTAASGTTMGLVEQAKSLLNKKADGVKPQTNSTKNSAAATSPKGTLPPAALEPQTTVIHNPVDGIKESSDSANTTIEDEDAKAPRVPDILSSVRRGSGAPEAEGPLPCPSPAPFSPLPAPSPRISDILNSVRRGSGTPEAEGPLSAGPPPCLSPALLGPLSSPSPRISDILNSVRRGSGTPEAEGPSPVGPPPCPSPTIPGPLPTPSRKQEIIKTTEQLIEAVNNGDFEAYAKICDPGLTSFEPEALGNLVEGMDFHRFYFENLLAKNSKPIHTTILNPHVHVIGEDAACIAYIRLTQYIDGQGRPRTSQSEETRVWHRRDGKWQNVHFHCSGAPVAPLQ
Sequence of Tyrosine-protein kinase BTK (Homo sapiens) (Q06187 whole entry): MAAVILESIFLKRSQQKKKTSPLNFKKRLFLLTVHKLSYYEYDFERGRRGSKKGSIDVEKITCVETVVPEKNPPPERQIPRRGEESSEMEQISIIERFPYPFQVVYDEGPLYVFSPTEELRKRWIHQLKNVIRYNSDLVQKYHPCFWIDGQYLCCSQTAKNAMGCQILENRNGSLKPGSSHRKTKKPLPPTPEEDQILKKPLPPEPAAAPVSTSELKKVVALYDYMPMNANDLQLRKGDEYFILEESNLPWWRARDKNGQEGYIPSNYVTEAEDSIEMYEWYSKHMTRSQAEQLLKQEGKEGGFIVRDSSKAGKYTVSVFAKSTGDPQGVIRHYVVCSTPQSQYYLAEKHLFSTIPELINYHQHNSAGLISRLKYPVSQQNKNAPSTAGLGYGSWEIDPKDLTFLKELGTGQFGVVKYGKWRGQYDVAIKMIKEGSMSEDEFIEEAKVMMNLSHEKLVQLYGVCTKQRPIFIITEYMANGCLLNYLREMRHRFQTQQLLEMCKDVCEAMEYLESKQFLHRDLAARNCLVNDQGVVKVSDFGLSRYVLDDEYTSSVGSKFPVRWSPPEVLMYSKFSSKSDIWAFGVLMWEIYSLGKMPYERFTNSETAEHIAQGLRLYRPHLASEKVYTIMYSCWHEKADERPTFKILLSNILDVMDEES
Sequence of Activin receptor type-1-like (Homo sapiens) (P37023 whole entry): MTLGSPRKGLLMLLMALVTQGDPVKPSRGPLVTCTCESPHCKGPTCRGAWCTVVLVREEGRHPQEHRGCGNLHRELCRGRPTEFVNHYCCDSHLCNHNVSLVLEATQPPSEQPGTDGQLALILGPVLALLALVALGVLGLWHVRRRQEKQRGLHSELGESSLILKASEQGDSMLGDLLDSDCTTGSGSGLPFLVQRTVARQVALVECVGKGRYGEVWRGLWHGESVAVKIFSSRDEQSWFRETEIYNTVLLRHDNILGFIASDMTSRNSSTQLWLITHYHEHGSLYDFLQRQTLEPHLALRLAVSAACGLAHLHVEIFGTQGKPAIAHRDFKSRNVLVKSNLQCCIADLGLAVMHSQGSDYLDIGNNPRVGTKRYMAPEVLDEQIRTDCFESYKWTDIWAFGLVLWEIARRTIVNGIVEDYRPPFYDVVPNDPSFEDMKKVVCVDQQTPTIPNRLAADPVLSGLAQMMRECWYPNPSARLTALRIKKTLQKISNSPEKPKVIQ
Sequence of Voltage-dependent L-type calcium channel subunit alpha-1C (phenylalkylamine site) (P22002 whole entry): as the sequence (P22002 whole entry) above

CCOCCn1cc(C(=O)Nc2ccc(-n3nc(-c4cccnc4)cc3C(F)(F)F)cn2)ccc1=O [BI 1935]
residual activity [1]: 96%
residual activity [2]: 79%
residual activity [3]: 80%
residual activity [4]: 94%
activity at 1 µM ([5]; compound concentration 1 uM): 86% (not active)
activity at 3 µM ([5]; compound concentration 3 uM): 68% (not active)
activity at 10 µM ([5]; compound concentration 10 uM): 25%
residual activity [6]: 97%
residual activity [7]: 100%
inhibition [8]: 2.27%
activity at 10 µM [9]: 88.5% (not active)
residual activity [10]: 81%
residual activity [11]: 98%
residual activity [12]: 100%
residual activity [13]: 100%
residual activity [14]: 100%
residual activity [15]: 80%
residual activity [16]: 86%
residual activity [17]: 100%
residual activity [18]: 90%
residual activity [19]: 94%
residual activity [20]: 100%
residual activity [21]: 100%
residual activity [22]: 100%
residual activity [23]: 100%
residual activity [24]: 100%
residual activity [25]: 100%
residual activity [26]: 91%
residual activity [27]: 95%
residual activity [28]: 100%
residual activity [29]: 100%
residual activity [30]: 0%
residual activity [31]: 100%
residual activity [32]: 108%
residual activity [33]: 100%
residual activity [34]: 94%
residual activity [35]: 81%
residual activity [36]: 100%
